As usually defined, the IC50 is the concentration that inhibits the measured activity by half. The term half-life denotes the time needed for the level to fall by half in the phase considered. A higher half-life goes with slow decline. The term bioavailability denotes the share of a dose that reaches the circulation, judged against a reference dose that is usually intravenous. A higher bioavailability goes with good availability.

≈ marks a conversion by molar mass, not a printed value. Bounds are passed on as bounds.

One data set relates to Staphylococcus aureus. Kind of data set: Antibacterial activity against Staphylococcus aureus ATCC 13709 by broth microdilution method. The format is functional.
The next data set concerns Streptococcus pneumoniae. Kind of data set: Antibacterial activity against clinical isolate Streptococcus pneumoniae SP030. The format is functional.
The next data set has as its system Streptococcus pyogenes. Kind of data set: Antibacterial activity against clinical isolate Streptococcus pyogenes 3565. The format is functional.
The subject of a further data set is Moraxella catarrhalis. The data set can be described thus: Antibacterial activity against Moraxella catarrhalis ATCC 23246 by broth microdilution method. The format is functional.
A further data set concerns Haemophilus influenzae. The data set can be described thus: Antibacterial activity against Haemophilus influenzae ATCC 49247 by broth microdilution method. The format is functional. In general terms: Broth dilution looks for growth in wells or tubes with falling amounts of substance.
In data set [1] the test system is Plasmodium falciparum. Kind of data set: Antimalarial activity against chloroquine-sensitive Plasmodium falciparum 3D7A infected in human A-positive erythrocytes assessed as inhibition of [3H]-hypoxanthine incorporation after 48 hrs by semi-automated microdilution technique. The format is functional, organism-based.
For data set [2], the system named is Plasmodium falciparum. The data set can be described thus: Antimalarial activity against chloroquine and pyrimethamine-resistant Plasmodium falciparum W2 infected in human A-positive erythrocytes assessed as inhibition of [3H]-hypoxanthine incorporation after 48 hrs by semi-automated microdilution technique. The format is functional, organism-based.
The next data set concerns HepG2. The data set can be described thus: Cytotoxicity against human HepG2 cells after 24 hrs by MTS assay. The format is cell-based. The conditions noted are these: HepG2, 24 h. On the technique in general: Formazan colour is commonly taken as a measure of viable cells.
In data set [3] the test system is Plasmodium falciparum. The data set can be described thus: Ratio of azithromycin IC50 to compound IC50 for chloroquine-sensitive Plasmodium falciparum 3D7A. The format is functional.
The subject of data set [4] is Plasmodium falciparum. The data set can be described thus: Ratio of azithromycin IC50 to compound IC50 for chloroquine and pyrimethamine-resistant Plasmodium falciparum W2. The format is functional.
The nature of data set [5]: Ratio of drug level in blood to plasma of CD1 mouse at 12.5 mg/kg, iv and 12.5 mg/kg, po by LC-MS/Ms analysis. The format is ADME, organism-based.
The next data set concerns Liver. Kind of data set: Intrinsic clearance in mouse liver microsomes assessed per gram of liver at 1 uM after 60 mins by LC-MS/Ms analysis. The format is ADME, Microsome. The conditions noted are these: 1 h.
Data set [6] concerns Liver microsomes. The data set can be described thus: Intrinsic clearance in rat liver microsomes assessed per gram of liver at 1 uM after 60 mins by LC-MS/Ms analysis. The conditions noted are these: 1 h. The format is ADME, Microsome. (Liver microsomes are vesicles of endoplasmic reticulum, rich in cytochrome P450 enzymes.)
Data set [7] relates to Liver microsomes. The data set can be described thus: Intrinsic clearance in human liver microsomes assessed per gram of liver at 1 uM after 60 mins by LC-MS/Ms analysis. The format is ADME, Microsome. The conditions noted are these: 1 h.
Data set [8] can be described thus: Clearance in CD1 mouse at 12.5 mg/kg, iv and 12.5 mg/kg, po by LC-MS/Ms analysis. The format is ADME, organism-based. The conditions noted are these: in vivo.
Data set [9] can be described thus: Volume of distribution at steady state in CD1 mouse at 12.5 mg/kg, iv and 12.5 mg/kg, po by LC-MS/Ms analysis. The format is ADME, organism-based. The conditions noted are these: in vivo, read-out: Vdss.
A short description of data set [10]: Half life in CD1 mouse at 12.5 mg/kg, iv and 12.5 mg/kg, po by LC-MS/Ms analysis. The format is ADME, organism-based. The conditions noted are these: in vivo.
A further data set has as its system Mus musculus. The data set can be described thus: Dose normalized AUC in CD1 mouse at 12.5 mg/kg, po by LC-MS/Ms analysis. More on the design: dose 12.5 mg/kg, route oral. The format is ADME, organism-based. The conditions noted are these: in vivo.
Data set [11] can be described thus: Oral bioavailability in CD1 mouse at 12.5 mg/kg by LC-MS/Ms analysis. The conditions noted are these: in vivo. The format is ADME, organism-based.
Data set [12] concerns Plasmodium falciparum. Kind of data set: Ratio of chloroquine IC50 to compound IC50 for […] Plasmodium falciparum W2. The format is functional.

As to `CC[C@H]1OC(=O)[C@H](C)[C@@H](O[C@H]2C[C@@](C)(OC)[C@@H](O)[C@H](C)O2)[C@H](C)[C@@H](O[C@@H]2O[C@H](C)C[C@H](N(C)C)[C@H]2O)[C@](C)(O)C[C@@H](C)CN(C)[C@H](C)[C@@H](O)[C@]1(C)O` [AZITHROMYCIN], the MIC in the data set on Staphylococcus aureus came to 1 µg/mL (≈ 1.34 µM); in the data set on Streptococcus pneumoniae, 0.06 µg/mL (≈ 0.0801 µM); against Streptococcus pyogenes it was 0.125 µg/mL (≈ 0.167 µM); against Moraxella catarrhalis, 0.06 µg/mL (≈ 0.0801 µM); in the data set on Haemophilus influenzae it was 2 µg/mL (≈ 2.67 µM). The IC50 is 11500 nM with Plasmodium falciparum [1], 2680 nM in the data set on Plasmodium falciparum [2] and 203000 nM in the data set with HepG2.

On to `CC[C@H]1OC(=O)[C@H](C)[C@@H](O)[C@H](C)[C@@H](O[C@@H]2O[C@H](C)C[C@H](N(C)CCCNc3ccnc4cc(Cl)ccc34)[C@H]2O)[C@](C)(O)C[C@@H](C)CN(C)[C@H](C)[C@@H](O)[C@]1(C)O`, for which the MIC is more than 64 µg/mL in the data set on Staphylococcus aureus; more than 64 µg/mL in the data set on Streptococcus pneumoniae; more than 64 µg/mL against Streptococcus pyogenes; 32 µg/mL (≈ 40.2 µM) against Moraxella catarrhalis; more than 64 µg/mL in the data set on Haemophilus influenzae. The compound also registered an IC50 in the data set with HepG2 of 14000 nM.

In the case of `CC[C@H]1OC(=O)[C@H](C)[C@@H](O[C@H]2C[C@@](C)(OC)[C@@H](O)[C@H](C)O2)[C@H](C)[C@@H](O[C@@H]2O[C@H](C)C[C@H](N(C)CCCNC(=O)CCCNc3ccnc4cc(Cl)ccc34)[C@H]2O)[C@](C)(O)C[C@@H](C)CN(C)[C@H](C)[C@@H](O)[C@]1(C)O`, the “Ratio IC50” value in the data set with Plasmodium falciparum [3] is given as 56; in the data set with Plasmodium falciparum [4], 150; in the data set on Plasmodium falciparum [12], 9. Besides, in [5], the blood plasma ratio was 1. In addition, the MIC against Staphylococcus aureus is more than 64 µg/mL; in the data set with Streptococcus pneumoniae, 4 µg/mL (≈ 3.85 µM); in the data set on Streptococcus pyogenes, 16 µg/mL (≈ 15.4 µM); against Moraxella catarrhalis, 4 µg/mL (≈ 3.85 µM); with Haemophilus influenzae, more than 64 µg/mL. The IC50 is 77 nM in the data set on Plasmodium falciparum [1], 48 nM with Plasmodium falciparum [2] and more than 50000 nM with HepG2. In addition, the CLint with Liver, in the data set on Liver microsomes [6] and with Liver microsomes [7] was less than 0.6 mL/min/g in each case. Besides, in data set [8], the clearance stood at 47.7 mL/min/kg. Further, the Vd in [9] worked out at 116 L/kg. The compound further gave a half-life in [10] of 63.9 h. Further, in the data set on Mus musculus, the AUC/dose is 13.28 ng·h/mL. In data set [11], the bioavailability came out at 5%.

Take `CC[C@H]1OC(=O)[C@H](C)[C@@H](O[C@H]2C[C@@](C)(OC)[C@@H](O)[C@H](C)O2)[C@H](C)[C@@H](O[C@@H]2O[C@H](C)C[C@H](N(C)CCCNc3ccnc4cc(Cl)ccc34)[C@H]2O)[C@](C)(O)C[C@@H](C)CN(C)[C@H](C)[C@@H](O)[C@]1(C)O`: the MIC is more than 64 µg/mL in the data set on Staphylococcus aureus; 8 µg/mL (≈ 8.39 µM) against Streptococcus pneumoniae; 16 µg/mL (≈ 16.8 µM) in the data set on Streptococcus pyogenes; 1 µg/mL (≈ 1.05 µM) in the data set on Moraxella catarrhalis; more than 64 µg/mL with Haemophilus influenzae. This compound displayed an IC50 in the data set with HepG2 of 3000 nM.

Regarding `CC[C@H]1OC(=O)[C@H](C)[C@@H](O)[C@H](C)[C@@H](O[C@@H]2O[C@H](C)C[C@H](N(C)CCCNC(=O)CCCNc3ccnc4cc(Cl)ccc34)[C@H]2O)[C@](C)(O)C[C@@H](C)CN(C)[C@H](C)[C@@H](O)[C@]1(C)O`, the “Ratio IC50” value with Plasmodium falciparum [3] and in the data set with Plasmodium falciparum [4] was 9 each time. The MIC against Staphylococcus aureus, with Streptococcus pneumoniae, in the data set with Streptococcus pyogenes, in the data set on Moraxella catarrhalis and against Haemophilus influenzae was more than 64 µg/mL each time. Besides, the IC50 was 636 nM in the data set with Plasmodium falciparum [1], 295 nM with Plasmodium falciparum [2] and more than 50000 nM in the data set on HepG2.

Turning to `CC[C@H]1OC(=O)[C@H](C)[C@@H](O[C@H]2C[C@@](C)(OC)[C@@H](O)[C@H](C)O2)[C@H](C)[C@@H](O[C@@H]2O[C@H](C)C[C@H](N(C)C(=O)CCCNc3ccnc4cc(Cl)ccc34)[C@H]2O)[C@](C)(O)C[C@@H](C)CN(C)[C@H](C)[C@@H](O)[C@]1(C)O`, the “Ratio IC50” value in the data set with Plasmodium falciparum [3] is listed as 111; in the data set on Plasmodium falciparum [4] it was 29; in the data set with Plasmodium falciparum [12], 5. The MIC was more than 64 µg/mL against Staphylococcus aureus; 8 µg/mL (≈ 8.15 µM) against Streptococcus pneumoniae; 16 µg/mL (≈ 16.3 µM) in the data set on Streptococcus pyogenes; 4 µg/mL (≈ 4.07 µM) against Moraxella catarrhalis; more than 64 µg/mL against Haemophilus influenzae. The IC50 is 104 nM in the data set with Plasmodium falciparum [1], 93 nM in the data set on Plasmodium falciparum [2] and more than 50000 nM in the data set with HepG2.

`CC[C@H]1OC(=O)[C@H](C)[C@@H](O[C@H]2C[C@@](C)(OC)[C@@H](O)[C@H](C)O2)[C@H](C)[C@@H](O[C@@H]2O[C@H](C)C[C@H](N(C)Cc3cn(CCCNc4ccnc5cc(Cl)ccc45)nn3)[C@H]2O)[C@](C)(O)C[C@@H](C)CN(C)[C@H](C)[C@@H](O)[C@]1(C)O`: the MIC against Staphylococcus aureus was 16 µg/mL (≈ 15.5 µM); against Streptococcus pneumoniae, 0.5 µg/mL (≈ 0.483 µM); against Streptococcus pyogenes it was 0.5 µg/mL (≈ 0.483 µM); with Moraxella catarrhalis, 2 µg/mL (≈ 1.93 µM); against Haemophilus influenzae it was more than 64 µg/mL.

For `CC[C@H]1OC(=O)[C@H](C)[C@@H](O[C@H]2C[C@@](C)(OC)[C@@H](O)[C@H](C)O2)[C@H](C)[C@@H](O[C@@H]2O[C@H](C)C[C@H](N(C)C(=O)CNc3ccnc4cc(Cl)ccc34)[C@H]2O)[C@](C)(O)C[C@@H](C)CN(C)[C@H](C)[C@@H](O)[C@]1(C)O`, the MIC in the data set on Staphylococcus aureus was 16 µg/mL (≈ 16.8 µM); against Streptococcus pneumoniae it was 2 µg/mL (≈ 2.1 µM); against Streptococcus pyogenes it was 4 µg/mL (≈ 4.19 µM); in the data set on Moraxella catarrhalis, 8 µg/mL (≈ 8.39 µM); in the data set on Haemophilus influenzae, more than 64 µg/mL. Also, the 50% inhibitory concentration (IC50) in the data set with Plasmodium falciparum [1] was 10 nM; with Plasmodium falciparum [2], 13 nM; in the data set with HepG2 it was 27000 nM.

These data come from ChEMBL document CHEMBL1944516, “Novel hybrid molecules based on 15-membered azalide as potential antimalarial agents” (Eur J Med Chem, 2012).
